Where a SMILES comes first, the peptide text is derived from it. [ ]: non-standard residue; d: D form. The star is where a group is joined. Piperazinyl(4-(2-MeOPh)) = COc1ccccc1N1CCN(*)CC1; Piperazinyl(4-Ph) = c1ccc(N2CCN(*)CC2)cc1; dGly(2-thienyl) = N[C@@H](C(=O)O)c1cccs1; d(tBuAla) = CC(C)(C)C[C@@H](N)C(=O)O
Tests used:
[1] = target: T1, endothelin A (ETA) receptors (Sus scrofa, UniProt Q29010); assay: Determination of ETA receptor binding activity ([125I]ET-1, swine ventricular muscle membrane fraction); conditions: [125I]ET-1 binding, 25° C., 1 hour
T1 construct: A membrane fraction prepared from swine ventricular muscle; from tissue; host or cells: swine ventricular muscle membrane fraction
T1 sequence (Q29010 21-427): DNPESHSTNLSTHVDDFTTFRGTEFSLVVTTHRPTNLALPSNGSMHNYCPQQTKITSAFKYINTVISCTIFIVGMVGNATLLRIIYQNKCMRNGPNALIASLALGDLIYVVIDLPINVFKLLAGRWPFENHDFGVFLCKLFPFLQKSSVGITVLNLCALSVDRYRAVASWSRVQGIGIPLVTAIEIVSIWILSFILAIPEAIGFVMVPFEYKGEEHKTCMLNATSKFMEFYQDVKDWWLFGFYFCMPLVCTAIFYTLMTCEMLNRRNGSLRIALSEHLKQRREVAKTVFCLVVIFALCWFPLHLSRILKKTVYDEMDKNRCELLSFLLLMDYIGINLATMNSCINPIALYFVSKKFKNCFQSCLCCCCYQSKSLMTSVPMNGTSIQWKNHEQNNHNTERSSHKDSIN
Method: Determination of endothelin receptor binding activity (1) Determination of ETA receptor binding activity
A membrane fraction prepared from swine ventricular muscle was diluted to 12 μg/ml with an assaying buffer and dispensed to assaying tubes at 100 μl per tube. To this membrane fraction suspension were added 2 μl of a solution of endothelin-l labeled with 100 pmole of radioactive iodine ([^125 I]ET-1, produced by Amersham Medical Ltd.) and 3 μl of a solution of the subject compound at various concentrations, followed by incubation at 25° C. for 1 hour. The suspension was then diluted with an ice-cooled assaying buffer and filtered through a glass filter GF/F (produced by Whatman K.K.). The membrane fraction containing endothelin A (ETA) receptors and receptor-bound [^125 I)ET-1 were recovered on the filter. The radioactivity retained on the filter was measured to obtain the amount of [^125 I]ET-1 bound to the ETA receptors. The amount of [^125 I,]ET-1 bound in the presence of ET-1 in great excess as the test compound was taken as the amount of nonspecific binding. The amount of specific binding (SPB) of [^125 I]ET-1 was obtained by subtracting the amount of nonspecific binding from the total amount of binding determined. The percent SPB value at test compound concentration C (molar concentration by volume) was defined as the percent ratio of the amount of specific binding relative to the amount of specific binding obtained at a test compound concentration of 0. The thus-obtained value was substituted for the following "pseudo-Hill's equation" to calculate the test compound concentration (IC50 value) required to have a value of 50% for the amount of specific binding of [125I]ET-1.
(§1) log[%SPB/(100 - %SPB)]=n[logC - log(IC50)]
(§2) n: Pseudo-Hill's coefficient

[2] = target: T2, endothelin B (ETB) receptors (Bos taurus, UniProt P28088); assay: Determination of ETB receptor binding activity ([125I]ET-1, bovine brain membrane fraction); conditions: [125I]ET-1 binding, 25° C., 1 hour
T2 construct: A membrane fraction prepared from a bovine brain; from tissue; host or cells: bovine brain membrane fraction
T2 sequence (P28088 27-441): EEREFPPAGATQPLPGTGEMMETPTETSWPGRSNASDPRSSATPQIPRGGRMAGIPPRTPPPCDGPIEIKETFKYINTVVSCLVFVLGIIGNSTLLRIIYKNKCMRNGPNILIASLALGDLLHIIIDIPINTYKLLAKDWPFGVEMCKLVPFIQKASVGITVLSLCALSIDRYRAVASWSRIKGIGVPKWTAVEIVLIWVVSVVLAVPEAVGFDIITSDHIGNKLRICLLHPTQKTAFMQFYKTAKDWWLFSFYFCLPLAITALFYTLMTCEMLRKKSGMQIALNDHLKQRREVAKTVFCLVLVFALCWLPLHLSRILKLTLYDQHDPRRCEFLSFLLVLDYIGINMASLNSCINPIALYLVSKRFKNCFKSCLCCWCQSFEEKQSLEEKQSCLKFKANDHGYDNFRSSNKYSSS
Method: (2) Determination of ETB receptor binding activity
A membrane fraction prepared from a bovine brain was diluted to 150 μg/ml with an assaying buffer and dispensed to assaying tubes at 100 μl per tube. To this membrane fraction suspension were added 2 μl of a solution of endothelin-1 labeled with 100 pM of radioactive iodine ([^125 I]ET-1, produced by Amersham Medical Ltd.) and 3 μl of a solution of the subject compound at various concentrations, followed by incubation at 25° C. for 1 hour. The suspension was then diluted with an ice-cooled assaying buffer and filtered through a glass filter GF/F (produced by Whatman K.K.). The membrane fraction containing endothelin B (ETB) receptors and receptor-bound [^125 I)ET-1 were recovered on the filter. The radioactivity retained on the filter was measured to obtain the amount of (^125 I]ET-1 bound to the ETB receptors. The amount of (^125 I]ET-1 bound in the presence of ET-1 in great excess as the test compound was taken as the amount of nonspecific binding. The amount of specific binding (SPB) of [^125 I]ET-1 was obtained by subtracting the amount of nonspecific binding from the total amount of binding determined. The percent SPB value at test compound concentration C (molar concentration by volume) was defined as the percent ratio of the amount of specific binding relative to the amount of specific binding obtained at a test compound concentration of 0. The thus-obtained value was substituted for the following "pseudo-Hill's equation" to calculate the test compound concentration (IC50 value) required to have a value of 50% for the amount of specific binding of [^125 I]ET-1.
as §1, §2

[3] = system: porcine coronary vein ring preparations constricted with sarafotoxin S6c; assay: Determination of porcine coronary vein relaxation activity; conditions: peptide at 0.01 μM; vein constricted with S6c 1 nM for 45 min; relative to constriction of S6c (100%)
Method: Determination of porcine coronary vein relaxation activity
Ring preparations of porcine coronary vein (3 mm in a diameter) were placed in an organ bath filled with Krebs solution gassed with 95% O2 /5%CO2 at 37° C. and allowed to stand for 1.5 h at a resting load of 0.5 g tension for vein. The preparations were constricted with 60 mM KCl for 15 min and then washed and allowed to stand for 1.5 h at the resting load. The vein preparations constricted with sarafotoxin S6c (S6c) at 1 nM for 45 min were used to determine the effect of the peptide of Example 4 at 0.01 μM. Result is shown in the following Table as the relaxation rate relative to the constriction of S6c (100%).

Compound	IC50 [1]	IC50 [2]	relaxation rate (%) [3]
COc1ccccc1N1CCN(C(=O)C[C@@H]2NC(=O)[C@@H](CC(=O)O)NC(=O)[C@@H](Cc3cn(C(C)=O)c4ccccc34)NC(=O)[C@H](CC(C)C)NC(=O)[C@@H](CC(C)(C)C)NC(=O)[C@H](CC(=O)O)NC2=O)CC1 [Example 3, cyclo(--D--Asp--L--Asp(B7)--L--Asp--D--γMeLeu--L--Leu--D--Trp(Ac)--)] (cyclo(D(Piperazinyl(4-(2-MeOPh)))D[d(tBuAla)]L[dW](Ac)[dD]))	0.49 nM	14 nM	
CC(C)C[C@@H]1NC(=O)[C@@H](c2cccs2)NC(=O)[C@H](CC(=O)O)NC(=O)[C@H](CC(=O)N2CCN(c3ccccc3)CC2)NC(=O)[C@@H](CC(=O)O)NC(=O)[C@@H](Cc2c[nH]c3ccccc23)NC1=O [Reference Example 1, cyclo(--D--Asp--L--Asp(B1)--L--Asp--D--Thg(2)--L--Leu--D--Trp--), reference compound] (cyclo(D(Piperazinyl(4-Ph))D[dGly(2-thienyl)]L[dW][dD]))	0.08 nM	120 nM	
CC(C)C[C@@H]1NC(=O)[C@@H](CC(C)(C)C)NC(=O)[C@H](CC(=O)O)NC(=O)[C@H](CC(=O)N2CCN(c3ccccc3)CC2)NC(=O)[C@@H](CC(=O)O)NC(=O)[C@@H](Cc2c[nH]c3ccccc23)NC1=O [Example 2, cyclo(--D--Asp--L--Asp(B1)--L--Asp--D--γMeLeu--L--Leu--D--Trp--)] (cyclo(D(Piperazinyl(4-Ph))D[d(tBuAla)]L[dW][dD]))	0.18 nM	28 nM	
COc1ccccc1N1CCN(C(=O)C[C@@H]2NC(=O)[C@@H](CC(=O)O)NC(=O)[C@@H](Cc3c[nH]c4ccccc34)NC(=O)[C@H](CC(C)C)NC(=O)[C@@H](CC(C)(C)C)NC(=O)[C@H](CC(=O)O)NC2=O)CC1 [Example 1, cyclo[--D--Asp--Asp(B7)--Asp--D--γMeLeu--L--Leu--D--Trp--]] (cyclo(D(Piperazinyl(4-(2-MeOPh)))D[d(tBuAla)]L[dW][dD]))	0.18 nM	11 nM	
cyclo[--D--Asp--Asp(B7)--Asp--D--γMeLeu--Leu--D--Trp--].2Na [Example 4]			66%

From patent publication US5948754A, “Cyclic hexapeptides, their production and use” (Takeda Chemical Industries, Ltd., priority 1993, dated 1999)
